Measured values from US8916702B2 (priority 2012, dated 2014).

tested on: HCV pseudoparticles (genotype 1a HCV E1 and E2 envelope, H77C isolate); assay: microbe, parasite or virus in culture; assay type: cell-based; settings: Hepatitis C virus, Huh-7, 48 h, HCV pseudoparticle infection of Huh7 cells, luciferase 2 days after infection; average of duplicates

Point of comparison: `CNC(=O)C(=O)NCC(NC(=O)c1ccc(Nc2nc(NC3(c4ccc(Cl)cc4)CC3)nc(OCC(F)(F)F)n2)cc1)C(=O)O` (stereo in doubt) [Compound 1006, (S)-2-(4-(4-(1-(4-chlorophenyl)cyclopropylamino)-6-(2,2,2-trifluoroethoxy)-1,3,5-triazin-2-ylamino)benzamido)-3-(2-(methylamino)-2-oxoacetamido)propanoic acid], EC50 0.69 nM. Against it:
- COC(=O)[C@H](CNC(=O)C(N)=O)NC(=O)c1ccc(Nc2nc(NC3(c4ccc(Cl)cc4)CC3)nc(OCC(F)(F)F)n2)cc1 [Compound 1002, (S)-methyl 3-(2-amino-2-oxoacetamido)-2-(4-(4-(1-(4-chlorophenyl)cyclopropylamino)-6-(2,2,2-trifluoroethoxy)-1,3,5-triazin-2-ylamino)benzamido)propanoate] — 3.1-fold higher, 2.11 nM
- COC(=O)[C@H](CNC(=O)C(=O)N(C)C)NC(=O)c1ccc(Nc2nc(NC3(c4ccc(Cl)cc4)CC3)nc(OCC(F)(F)F)n2)cc1 [Compound 1004, (S)-methyl 2-(4-(4-(1-(4-chlorophenyl)cyclopropylamino)-6-(2,2,2-trifluoroethoxy)-1,3,5-triazin-2-ylamino)benzamido)-3-(2-(dimethylamino)-2-oxoacetamido)propanoate] — 6.9-fold higher, 4.74 nM

same assay, conditions: Hepatitis C virus, Huh-7, 48 h, read-out: Activity (EC50 class), HCV pseudoparticle infection of Huh7 cells, luciferase 2 days after infection; EC50 expressed as class A/B

`CNC(=O)C(=O)NCC(NC(=O)c1ccc(Nc2nc(NC3(c4ccc(Cl)cc4)CC3)nc(OCC(F)(F)F)n2)cc1)C(=O)O` (stereo in doubt) [Compound 1006, (S)-2-(4-(4-(1-(4-chlorophenyl)cyclopropylamino)-6-(2,2,2-trifluoroethoxy)-1,3,5-triazin-2-ylamino)benzamido)-3-(2-(methylamino)-2-oxoacetamido)propanoic acid] and `CNC(=O)C(=O)NCC[C@H](NC(=O)c1ccc(Nc2nc(NC3(c4ccc(Cl)cc4)CC3)nc(OCC(F)(F)F)n2)cc1)C(=O)O` [Compound 1014, (S)-2-(4-(4-(1-(4-chlorophenyl)cyclopropylamino)-6-(2,2,2-trifluoroethoxy)-1,3,5-triazin-2-ylamino)benzamido)-4-(2-(methylamino)-2-oxoacetamido)butanoic acid] fall in the same range of EC50: 0.01 to 10 nM for the first, 0.01 to 10 nM for the second.

`NC(=O)C(=O)NCCC(NC(=O)c1ccc(Nc2nc(NC3(c4ccc(Cl)cc4)CC3)nc(OCC(F)(F)F)n2)cc1)C(=O)O` (stereo in doubt) [Compound 1013, (S)-4-(2-amino-2-oxoacetamido)-2-(4-(4-(1-(4-chlorophenyl)cyclopropylamino)-6-(2,2,2-trifluoroethoxy)-1,3,5-triazin-2-ylamino)benzamido)butanoic acid] and `NC(=O)C(=O)NCCC[C@H](NC(=O)c1ccc(Nc2nc(NC3(c4ccc(Cl)cc4)CC3)nc(OCC(F)(F)F)n2)cc1)C(=O)O` [Compound 1016, (S)-5-(2-amino-2-oxoacetamido)-2-(4-(4-(1-(4-chlorophenyl)cyclopropylamino)-6-(2,2,2-trifluoroethoxy)-1,3,5-triazin-2-ylamino)benzamido)pentanoic acid] fall in the same range of EC50: 0.01 to 10 nM for the first, 0.01 to 10 nM for the second.

First: CCOC(=O)C(=O)NC[C@H](NC(=O)c1ccc(Nc2nc(NC3(c4ccc(Cl)cc4)CC3)nc(OCC(F)(F)F)n2)cc1)C(=O)OC [Compound 1001, (S)-methyl 2-(4-(4-(1-(4-chlorophenyl)cyclopropylamino)-6-(2,2,2-trifluoroethoxy)-1,3,5-triazin-2-ylamino)benzamido)-3-(2-ethoxy-2-oxoacetamido)propanoate]
Second: COC(=O)[C@H](CNC(=O)C(N)=O)NC(=O)c1ccc(Nc2nc(NC3(c4ccc(Cl)cc4)CC3)nc(OCC(F)(F)F)n2)cc1 [Compound 1002, (S)-methyl 3-(2-amino-2-oxoacetamido)-2-(4-(4-(1-(4-chlorophenyl)cyclopropylamino)-6-(2,2,2-trifluoroethoxy)-1,3,5-triazin-2-ylamino)benzamido)propanoate]
The EC50 of the first is higher: 10 to 1000 nM for the first, 0.01 to 10 nM for the second. The second is the more potent here.

`CNC(=O)C(=O)NC[C@H](NC(=O)c1ccc(Nc2nc(NC3(c4ccc(Cl)cc4)CC3)nc(OCC(F)(F)F)n2)cc1)C(=O)OC` [Compound 1003, (S)-methyl 2-(4-(4-(1-(4-chlorophenyl)cyclopropylamino)-6-(2,2,2-trifluoroethoxy)-1,3,5-triazin-2-ylamino)benzamido)-3-(2-(methylamino)-2-oxoacetamido)propanoate] and `CNC(=O)C(=O)NCC[C@H](NC(=O)c1ccc(Nc2nc(NC3(c4ccc(Cl)cc4)CC3)nc(OCC(F)(F)F)n2)cc1)C(=O)OC` [Compound 1010, (S)-methyl 2-(4-(4-(1-(4-chlorophenyl)cyclopropylamino)-6-(2,2,2-trifluoroethoxy)-1,3,5-triazin-2-ylamino)benzamido)-4-(2-(methylamino)-2-oxoacetamido)butanoate] fall in the same range of EC50: 0.01 to 10 nM for the first, 0.01 to 10 nM for the second.

`COC(=O)[C@H](CNC(=O)C(=O)N(C)C)NC(=O)c1ccc(Nc2nc(NC3(c4ccc(Cl)cc4)CC3)nc(OCC(F)(F)F)n2)cc1` [Compound 1004, (S)-methyl 2-(4-(4-(1-(4-chlorophenyl)cyclopropylamino)-6-(2,2,2-trifluoroethoxy)-1,3,5-triazin-2-ylamino)benzamido)-3-(2-(dimethylamino)-2-oxoacetamido)propanoate] and `COC(=O)[C@H](CCNC(=O)C(=O)N(C)C)NC(=O)c1ccc(Nc2nc(NC3(c4ccc(Cl)cc4)CC3)nc(OCC(F)(F)F)n2)cc1` [Compound 1011, (S)-methyl 2-(4-(4-(1-(4-chlorophenyl)cyclopropylamino)-6-(2,2,2-trifluoroethoxy)-1,3,5-triazin-2-ylamino)benzamido)-4-(2-(dimethylamino)-2-oxoacetamido)butanoate] fall in the same range of EC50: 0.01 to 10 nM for the first, 0.01 to 10 nM for the second.

`NC(=O)C(=O)NC[C@H](NC(=O)c1ccc(Nc2nc(NC3(c4ccc(Cl)cc4)CC3)nc(OCC(F)(F)F)n2)cc1)C(=O)O` [Compound 1005, (S)-3-(2-amino-2-oxoacetamido)-2-(4-(4-(1-(4-chlorophenyl)cyclopropylamino)-6-(2,2,2-trifluoroethoxy)-1,3,5-triazin-2-ylamino)benzamido)propanoic acid] and `CN(C)C(=O)C(=O)NC[C@H](NC(=O)c1ccc(Nc2nc(NC3(c4ccc(Cl)cc4)CC3)nc(OCC(F)(F)F)n2)cc1)C(=O)O` [Compound 1007, (S)-2-(4-(4-(1-(4-chlorophenyl)cyclopropylamino)-6-(2,2,2-trifluoroethoxy)-1,3,5-triazin-2-ylamino)benzamido)-3-(2-(dimethylamino)-2-oxoacetamido)propanoic acid] fall in the same range of EC50: 0.01 to 10 nM for the first, 0.01 to 10 nM for the second.

`CN(C)C(=O)C(=O)NCC(C)(C)CNC(=O)c1ccc(Nc2nc(NC3(c4ccc(Cl)cc4)CC3)nc(OCC(F)(F)F)n2)cc1` [Compound 1008, N1-(3-(4-(4-(1-(4-chlorophenyl)cyclopropylamino)-6-(2,2,2-trifluoroethoxy)-1,3,5-triazin-2-ylamino)benzamido)-2,2-dimethylpropyl)-N2,N2-dimethyloxalamide] and `CN(C)C(=O)C(=O)NCC[C@H](NC(=O)c1ccc(Nc2nc(NC3(c4ccc(Cl)cc4)CC3)nc(OCC(F)(F)F)n2)cc1)C(=O)O` [Compound 1015, (S)-2-(4-(4-(1-(4-chlorophenyl)cyclopropylamino)-6-(2,2,2-trifluoroethoxy)-1,3,5-triazin-2-ylamino)benzamido)-4-(2-(dimethylamino)-2-oxoacetamido)butanoic acid] fall in the same range of EC50: 0.01 to 10 nM for the first, 0.01 to 10 nM for the second.

`COC(=O)[C@H](CCNC(=O)C(N)=O)NC(=O)c1ccc(Nc2nc(NC3(c4ccc(Cl)cc4)CC3)nc(OCC(F)(F)F)n2)cc1` [Compound 1009, (S)-methyl 4-(2-amino-2-oxoacetamido)-2-(4-(4-(1-(4-chlorophenyl)cyclopropylamino)-6-(2,2,2-trifluoroethoxy)-1,3,5-triazin-2-ylamino)benzamido)butanoate] and `COC(=O)[C@H](CCCNC(=O)C(N)=O)NC(=O)c1ccc(Nc2nc(NC3(c4ccc(Cl)cc4)CC3)nc(OCC(F)(F)F)n2)cc1` [Compound 1012, (S)-methyl 5-(2-amino-2-oxoacetamido)-2-(4-(4-(1-(4-chlorophenyl)cyclopropylamino)-6-(2,2,2-trifluoroethoxy)-1,3,5-triazin-2-ylamino)benzamido)pentanoate] fall in the same range of EC50: 0.01 to 10 nM for the first, 0.01 to 10 nM for the second.

`COC(=O)C(NC(=O)c1ccc(Nc2nc(NC3(c4ccc(Cl)cc4)CC3)nc(OCC(F)(F)F)n2)cc1)C1CCCN(C(=O)C(N)=O)C1` (centres unmarked) [Compound 1017, methyl 2-(1-(2-amino-2-oxoacetyl)piperidin-3-yl)-2-(4-(4-(1-(4-chlorophenyl)cyclopropylamino)-6-(2,2,2-trifluoroethoxy)-1,3,5-triazin-2-ylamino)benzamido)acetate] showed an EC50 of 0.01 to 10 nM.
